Data taken from US10941157B2, “Pesticidal compositions and uses thereof” (Gilead Apollo, LLC, priority 2015, dated 2021).
≈ marks a conversion by molar mass, not a printed value. Where two headings read alike, the source gives them in different places.

How the values were obtained:
Type in all cases: cell-based
Septoria tritici (St) = assay: In vitro pathogen growth inhibition assay, St; details: Zymoseptoria tritici, 48 h
In short: (§1)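 Spores in 17% V8 liquid medium, or 1.5 mm Rs mycelial plugs in ¼ PDB, incubated with compound; final concentration checked by OD600 for precipitation. OD readings at 24 and 48 h, blank-subtracted, plus visual ratings; value is concentration giving ≥90% growth inhibition.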

[1] = tested on: Phytophthora capsici (Pc); assay: In vitro pathogen growth inhibition assay, Pc; details: 48 h
In short: (§2)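 Spores of Dm, Fv and Pc were diluted in 17% V8 liquid medium; Rs used 1.5 mm mycelial plugs in ¼ PDB. Compounds from 2.5 mg/ml DMSO stocks were combined with inoculum, growth was read by OD600 at 24 and 48 h with blank subtraction, and the reported value is the concentration giving ≥90% inhibition.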

[2] = tested on: Fusarium virguliforme (Fv); assay: In vitro pathogen growth inhibition assay, Fv
In short: as §2

[3] = tested on: Collectotrichum graminicola (Cg); assay: In vitro pathogen growth inhibition assay, Cg; details: 48 h
In short: as §1

Rhizoctonia solani (Rs) = assay: In vitro pathogen growth inhibition assay, Rs (mycelial plugs); details: Rhizoctonia solani, 48 h, mycelial plugs
In short: as §2

Diplodia maydis (Dm) = assay: In vitro pathogen growth inhibition assay, Dm; details: Stenocarpella maydis, 48 h
In short: as §2

Botrtyis cinerea (Bc) = assay: In vitro pathogen growth inhibition assay, Bc; details: 48 h
In short: as §1

[4] = tested on: Fusarium moniliforme (Fm); assay: In vitro pathogen growth inhibition assay, Fm; details: Fusarium verticillioides
In short: as §1

[5] = ≥90% growth inhibition, 48 hours, vs 2% DMSO control, read-out: Compound Concentration (ppm) sufficient for ≥90% inhibition of St
[6] = ≥90% growth inhibition, 48 hours, vs 2% DMSO control, read-out: Compound Concentration (ppm) sufficient for ≥90% inhibition of Pc
[7] = ≥90% growth inhibition, 48 hours, vs 2% DMSO control, read-out: Compound Concentration (ppm) sufficient for ≥90% inhibition of Fv
[8] = ≥90% growth inhibition, 48 hours, vs 2% DMSO control, read-out: Compound Concentration (ppm) sufficient for ≥90% inhibition of Cg
[9] = ≥90% growth inhibition, 48 hours, vs 2% DMSO control, read-out: Compound Concentration (ppm) sufficient for ≥90% inhibition of Rs
[10] = ≥90% growth inhibition, 48 hours, vs 2% DMSO control, read-out: Compound Concentration (ppm) sufficient for ≥90% inhibition of Dm
[11] = ≥90% growth inhibition, 48 hours, vs 2% DMSO control, read-out: Compound Concentration (ppm) sufficient for ≥90% inhibition of Bc
[12] = ≥90% growth inhibition, 48 hours, vs 2% DMSO control, read-out: Compound Concentration (ppm) sufficient for ≥90% inhibition of Fm
[13] = ≥90% inhibition, 48 hours vs 2% DMSO control, read-out: Compound Concentration (ppm) sufficient for ≥90% inhibition of growth, St
[14] = ≥90% inhibition, 48 hours vs 2% DMSO control, read-out: Compound Concentration (ppm) sufficient for ≥90% inhibition of growth, Pc
[15] = ≥90% inhibition, 48 hours vs 2% DMSO control, read-out: Compound Concentration (ppm) sufficient for ≥90% inhibition of growth, Fv
[16] = ≥90% inhibition, 48 hours vs 2% DMSO control, read-out: Compound Concentration (ppm) sufficient for ≥90% inhibition of growth, Cg
[17] = ≥90% inhibition, 48 hours vs 2% DMSO control, read-out: Compound Concentration (ppm) sufficient for ≥90% inhibition of growth, Rs
[18] = ≥90% inhibition, 48 hours vs 2% DMSO control, read-out: Compound Concentration (ppm) sufficient for ≥90% inhibition of growth, Dm
[19] = ≥90% inhibition, 48 hours vs 2% DMSO control, read-out: Compound Concentration (ppm) sufficient for ≥90% inhibition of growth, Bc
[20] = ≥90% inhibition, 48 hours vs 2% DMSO control, read-out: Compound Concentration (ppm) sufficient for ≥90% inhibition of growth, Fm

With `CCNC(=O)C(C)(C)n1c(=O)c2c(C)c(C(=O)OCC)sc2n(C[C@H](OCCC#N)c2cc(F)ccc2O)c1=O` [Compound I-302] the IC90 (Septoria tritici (St); [5]) was over 50 mg/L, the IC90 [1, 6] was over 50 mg/L and the IC90 [2, 7] was 2 mg/L (≈ 3.48 µM). The IC90 [3, 8] was 50 mg/L (≈ 87 µM), the IC90 (Rhizoctonia solani (Rs); [9]) was 0.08 mg/L (≈ 0.139 µM) and the IC90 (Diplodia maydis (Dm); [10]) was 50 mg/L (≈ 87 µM). For the same compound, the IC90 (Botrtyis cinerea (Bc); [11]) was 10 mg/L (≈ 17.4 µM) and the IC90 [4, 12] was at least 2 mg/L.
`COc1ccc(F)cc1CCn1c(=O)n(C(C)(C)C(=O)NC(C)C)c(=O)c2c(C)c(-n3cccn3)sc21` [Compound I-329] was tested, and the IC90 (Septoria tritici (St); [5]) was over 50 mg/L, the IC90 [1, 6] was over 50 mg/L and the IC90 [2, 7] was 2 mg/L (≈ 3.79 µM). It also gave an IC90 [3, 8] of 50 mg/L (≈ 94.8 µM), an IC90 (Rhizoctonia solani (Rs); [9]) of 50 mg/L (≈ 94.8 µM) and an IC90 (Diplodia maydis (Dm); [10]) of 50 mg/L (≈ 94.8 µM). It also gave an IC90 (Botrtyis cinerea (Bc); [11]) of 10 mg/L (≈ 19 µM) and an IC90 [4, 12] of 2 mg/L (≈ 3.79 µM).
With `CCOC(=O)c1sc2c(c1C)c(=O)n(C(C)(C)C(=O)NC(C)C)c(=O)n2C[C@H](OCC(C)(C)C#N)c1cc(F)ccc1OC` [Compound I-321] the IC90 (Septoria tritici (St); [5]) was over 50 mg/L, the IC90 [1, 6] was over 50 mg/L and the IC90 [2, 7] was 0.4 mg/L (≈ 0.634 µM). It also gave an IC90 [3, 8] of 0.4 mg/L (≈ 0.634 µM), an IC90 (Rhizoctonia solani (Rs); [9]) of 2 mg/L (≈ 3.17 µM) and an IC90 (Diplodia maydis (Dm); [10]) of at least 0.4 mg/L. The IC90 (Botrtyis cinerea (Bc); [11]) was 0.4 mg/L (≈ 0.634 µM) and the IC90 [4, 12] was 0.08 mg/L (≈ 0.127 µM).
`COc1ccc(F)cc1[C@H](Cn1c(=O)n([C@@H](C)C(=O)N2CCCC2)c(=O)c2c(C)c(-n3cccn3)sc21)OC(C)C` [Compound I-063] gave an IC90 (Septoria tritici (St); [13]) of at least 50 mg/L, an IC90 [1, 14] of over 50 mg/L and an IC90 [2, 15] of 0.4 mg/L (≈ 0.685 µM). The IC90 [3, 16] was 0.4 mg/L (≈ 0.685 µM), the IC90 (Rhizoctonia solani (Rs); [17]) was 2 mg/L (≈ 3.43 µM) and the IC90 (Diplodia maydis (Dm); [18]) was at least 0.4 mg/L. For the same compound, the IC90 (Botrtyis cinerea (Bc); [19]) was 0.4 mg/L (≈ 0.685 µM) and the IC90 [4, 20] was 0.08 mg/L (≈ 0.137 µM).
Compound `COc1ccc(F)cc1[C@H](Cn1c(=O)n(C(C)(C)C(=O)NC(C)C)c(=O)c2c(C)c(-c3ncco3)sc21)OC1CCC(=O)CC1` [Compound I-024] has an IC90 (Septoria tritici (St); [13]) of over 50 mg/L, an IC90 [1, 14] of over 50 mg/L and an IC90 [2, 15] of 2 mg/L (≈ 3.12 µM). For the same compound, the IC90 [3, 16] was 2 mg/L (≈ 3.12 µM), the IC90 (Rhizoctonia solani (Rs); [17]) was 0.4 mg/L (≈ 0.624 µM) and the IC90 (Diplodia maydis (Dm); [18]) was at least 2 mg/L. The IC90 (Botrtyis cinerea (Bc); [19]) was 0.4 mg/L (≈ 0.624 µM) and the IC90 [4, 20] was 0.08 mg/L (≈ 0.125 µM).
With `COc1ccc(F)cc1[C@H](Cn1c(=O)n(C(C)(C)C(=O)N2CCOCC2)c(=O)c2c(C)c(-n3nccn3)sc21)OC(C)C` [Compound I-021] the IC90 (Septoria tritici (St); [13]) was over 10 mg/L, the IC90 [1, 14] was over 50 mg/L and the IC90 [2, 15] was 0.4 mg/L (≈ 0.651 µM). The IC90 [3, 16] was 2 mg/L (≈ 3.25 µM), the IC90 (Rhizoctonia solani (Rs); [17]) was 0.4 mg/L (≈ 0.651 µM) and the IC90 (Diplodia maydis (Dm); [18]) was 2 mg/L (≈ 3.25 µM). For the same compound, the IC90 (Botrtyis cinerea (Bc); [19]) was 0.4 mg/L (≈ 0.651 µM) and the IC90 [4, 20] was 0.08 mg/L (≈ 0.13 µM).
`Cc1c(-n2nccn2)sc2c1c(=O)n(C(C)(C)C(=O)NC(C)C)c(=O)n2C[C@H](OC(C)C)c1cc(F)ccc1CCC#N` [Compound I-277] was tested, and the IC90 (Septoria tritici (St); [5]) was over 50 mg/L, the IC90 [1, 6] was over 50 mg/L and the IC90 [2, 7] was 0.08 mg/L (≈ 0.131 µM). It also gave an IC90 [3, 8] of 0.4 mg/L (≈ 0.656 µM), an IC90 (Rhizoctonia solani (Rs); [9]) of 0.08 mg/L (≈ 0.131 µM) and an IC90 (Diplodia maydis (Dm); [10]) of 2 mg/L (≈ 3.28 µM). The IC90 (Botrtyis cinerea (Bc); [11]) was 0.4 mg/L (≈ 0.656 µM) and the IC90 [4, 12] was 0.08 mg/L (≈ 0.131 µM).
`CCOC(=O)c1sc2c(c1C)c(=O)n(C(C)(C)C(=O)N1CCCC1)c(=O)n2C[C@H](OCCO)c1cc(F)ccc1OC` [Compound I-178] showed an IC90 (Septoria tritici (St); [5]) of at least 50 mg/L, an IC90 [1, 6] of over 50 mg/L and an IC90 [2, 7] of 2 mg/L (≈ 3.3 µM). The IC90 [3, 8] was at least 0.4 mg/L, the IC90 (Rhizoctonia solani (Rs); [9]) was 0.4 mg/L (≈ 0.66 µM) and the IC90 (Diplodia maydis (Dm); [10]) was 2 mg/L (≈ 3.3 µM). It also gave an IC90 (Botrtyis cinerea (Bc); [11]) of 2 mg/L (≈ 3.3 µM) and an IC90 [4, 12] of 0.4 mg/L (≈ 0.66 µM).
In the case of `COc1ccc(F)cc1[C@H](Cn1c(=O)n(C(C)(C)C(=O)N2CC=CC2)c(=O)c2c(C)c(-n3cccn3)sc21)OC1CCOCC1` [Compound I-162], the IC90 (Septoria tritici (St); [13]) is reported as over 50 mg/L, the IC90 [1, 14] is reported as over 50 mg/L and the IC90 [2, 15] is reported as 10 mg/L (≈ 15.7 µM). For the same compound, the IC90 [3, 16] was 2 mg/L (≈ 3.14 µM), the IC90 (Rhizoctonia solani (Rs); [17]) was 2 mg/L (≈ 3.14 µM) and the IC90 (Diplodia maydis (Dm); [18]) was 10 mg/L (≈ 15.7 µM). It also gave an IC90 (Botrtyis cinerea (Bc); [19]) of 10 mg/L (≈ 15.7 µM) and an IC90 [4, 20] of 2 mg/L (≈ 3.14 µM).
Work on `COc1ccc(F)cc1[C@H](Cn1c(=O)n(C(C)(C)C(=O)NC(C)C)c(=O)c2c(C)c(-n3cccn3)sc21)OC[C@@H](C)O` [Compound I-134] yielded an IC90 (Septoria tritici (St); [13]) of at least 10 mg/L, an IC90 [1, 14] of at least 10 mg/L and an IC90 [2, 15] of 2 mg/L (≈ 3.32 µM). For the same compound, the IC90 [3, 16] was 0.4 mg/L (≈ 0.665 µM), the IC90 (Rhizoctonia solani (Rs); [17]) was at least 0.4 mg/L and the IC90 (Diplodia maydis (Dm); [18]) was at least 2 mg/L. For the same compound, the IC90 (Botrtyis cinerea (Bc); [19]) was 2 mg/L (≈ 3.32 µM) and the IC90 [4, 20] was 0.4 mg/L (≈ 0.665 µM).
